Assay results reported in US20040248777A1, “Biomaterials for nerve reconstruction and process for producing the same” (priority 2001, published 2004).

Settings: laminin fragments in a collagen-filled silicon tube
Description: The present invention is directed to a biomaterial for nerve reconstruction, comprising chitin or chitosan with a surface modified by a laminin fragment having an amino acid sequence, such as YIGSR (tyrosine-isoleucine-glycine-serine-arginine) or IKVAV (isoleucine-lysine-valine-alanine-valine). This material may be used in the form of a nerve-bridging chitosan tube with a wall surface directly modified by the above laminin fragment, a nerve-bridging tube containing therein chitosan fibers with a surface modified by the above laminin fragment, or a nerve-bridging tube filled with chitosan gel modified by the above laminin fragment.

isoleucine-lysine-valine-alanine-valine [IKVAV]
cell adhesion and neurite growth-promoting effects in vivo: cannot achieve such effects

tyrosine-isoleucine-glycine-serine-arginine [YIGSR]
cell adhesion and neurite growth-promoting effects in vivo: cannot achieve such effects
